According to PubChem BioAssay (NCI):
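Results reflect a 48-hour exposure of cells in 96-well plates to compound at five concentrations. At the GI50, growth is halved. TGI is the concentration that stops growth completely.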

Legend:
Assay in all cases: NCI tumour cell line growth inhibition, 48 h; in the data active = GI50 below about 0.43 µM; inactive = the rest
OVCAR-8 ovarian = tested on: OVCAR-8 ovarian
NCI-H460 lung = tested on: NCI-H460 lung
CCRF-CEM leukemia = tested on: CCRF-CEM leukemia
SNB-75 CNS = tested on: SNB-75 CNS
HOP-92 NSCLC = tested on: HOP-92 NSCLC
COLO 205 colon = tested on: COLO 205 colon
PC-3 prostate = tested on: PC-3 prostate
HOP-62 NSCLC = tested on: HOP-62 NSCLC
IGROV1 ovarian = tested on: IGROV1 ovarian
K-562 leukemia = tested on: K-562 leukemia
MDA-MB-231 breast = tested on: MDA-MB-231 breast
DU-145 prostate = tested on: DU-145 prostate
UACC-62 melanoma = tested on: UACC-62 melanoma
HCC-2998 colon = tested on: HCC-2998 colon
HCT-15 colon = tested on: HCT-15 colon
HS 578T breast = tested on: HS 578T breast
SF-295 CNS = tested on: SF-295 CNS
SNB-19 CNS = tested on: SNB-19 CNS
OVCAR-5 ovarian = tested on: OVCAR-5 ovarian
LOX IMVI melanoma = tested on: LOX IMVI melanoma
M14 melanoma = tested on: M14 melanoma
NCI/ADR-RES ovarian = tested on: NCI/ADR-RES ovarian
OVCAR-4 ovarian = tested on: OVCAR-4 ovarian
EKVX NSCLC = tested on: EKVX NSCLC
CAKI-1 renal = tested on: CAKI-1 renal
U251 CNS = tested on: U251 CNS
786-0 renal = tested on: 786-0 renal
UACC-257 melanoma = tested on: UACC-257 melanoma
RXF 393 renal = tested on: RXF 393 renal
RPMI-8226 leukemia = tested on: RPMI-8226 leukemia
OVCAR-3 ovarian = tested on: OVCAR-3 ovarian
SK-MEL-5 melanoma = tested on: SK-MEL-5 melanoma
SF-268 CNS = tested on: SF-268 CNS
SK-MEL-28 melanoma = tested on: SK-MEL-28 melanoma
KM12 colon = tested on: KM12 colon
NCI-H23 lung = tested on: NCI-H23 lung
MCF7 breast = tested on: MCF7 breast
A549 NSCLC = tested on: A549 NSCLC
NCI-H522 lung = tested on: NCI-H522 lung
T-47D breast = tested on: T-47D breast
HT29 colon = tested on: HT29 colon
MOLT-4 leukemia = tested on: MOLT-4 leukemia
BT-549 breast = tested on: BT-549 breast
SK-MEL-2 melanoma = tested on: SK-MEL-2 melanoma
SK-OV-3 ovarian = tested on: SK-OV-3 ovarian
HCT-116 colon = tested on: HCT-116 colon
TK-10 renal = tested on: TK-10 renal
SN12C renal = tested on: SN12C renal
ACHN renal = tested on: ACHN renal
SF-539 CNS = tested on: SF-539 CNS
SW-620 colon = tested on: SW-620 colon
MDA-MB-435 = tested on: MDA-MB-435
UO-31 renal = tested on: UO-31 renal
A498 renal = tested on: A498 renal
HL-60(TB) leukemia = tested on: HL-60(TB) leukemia
SR leukemia = tested on: SR leukemia
NCI-H226 lung = tested on: NCI-H226 lung
MALME-3M melanoma = tested on: MALME-3M melanoma

CN1C(=O)/C(=C2\S/C(=N\c3nnc(-c4ccccc4)o3)NC2=O)c2ccccc21
inactive: GI50 (OVCAR-8 ovarian) > 100 µM | GI50 (NCI-H460 lung) 65.6 µM | GI50 (CCRF-CEM leukemia) 63.7 µM | GI50 (SNB-75 CNS) > 100 µM | GI50 (HOP-92 NSCLC) > 100 µM | GI50 (COLO 205 colon) > 100 µM | GI50 (PC-3 prostate) > 100 µM | GI50 (HOP-62 NSCLC) 68.8 µM | GI50 (IGROV1 ovarian) 59.9 µM | GI50 (K-562 leukemia) > 100 µM | GI50 (MDA-MB-231 breast) > 100 µM | GI50 (DU-145 prostate) > 100 µM | GI50 (UACC-62 melanoma) 79.2 µM | GI50 (HCC-2998 colon) > 100 µM | GI50 (HCT-15 colon) > 100 µM | GI50 (HS 578T breast) > 100 µM | GI50 (SF-295 CNS) 41.2 µM | GI50 (SNB-19 CNS) > 100 µM | GI50 (OVCAR-5 ovarian) > 100 µM | GI50 (LOX IMVI melanoma) 77.9 µM | GI50 (M14 melanoma) > 100 µM | GI50 (NCI/ADR-RES ovarian) 84.7 µM | GI50 (OVCAR-4 ovarian) > 100 µM | GI50 (EKVX NSCLC) > 100 µM | GI50 (CAKI-1 renal) 51.8 µM | GI50 (U251 CNS) 66.4 µM | GI50 (786-0 renal) > 100 µM | GI50 (UACC-257 melanoma) 34.4 µM | GI50 (RXF 393 renal) > 100 µM | GI50 (RPMI-8226 leukemia) > 100 µM | GI50 (OVCAR-3 ovarian) > 100 µM | GI50 (SK-MEL-5 melanoma) 90.1 µM | GI50 (SF-268 CNS) > 100 µM | GI50 (SK-MEL-28 melanoma) > 100 µM | GI50 (KM12 colon) > 100 µM | GI50 (NCI-H23 lung) > 100 µM | GI50 (MCF7 breast) 91.9 µM | GI50 (A549 NSCLC) 43.9 µM | GI50 (NCI-H522 lung) > 100 µM | GI50 (T-47D breast) > 100 µM | GI50 (HT29 colon) > 100 µM | GI50 (MOLT-4 leukemia) > 100 µM | GI50 (BT-549 breast) > 100 µM | GI50 (SK-MEL-2 melanoma) > 100 µM | GI50 (SK-OV-3 ovarian) > 100 µM | GI50 (HCT-116 colon) 92.4 µM | GI50 (TK-10 renal) > 100 µM | GI50 (SN12C renal) > 100 µM | GI50 (ACHN renal) > 100 µM | GI50 (SF-539 CNS) > 100 µM | GI50 (SW-620 colon) > 100 µM | GI50 (MDA-MB-435) > 100 µM | GI50 (UO-31 renal) > 100 µM
> 100 µM: TGI (OVCAR-8 ovarian) | TGI (NCI-H460 lung) | TGI (CCRF-CEM leukemia) | TGI (SNB-75 CNS) | TGI (HOP-92 NSCLC) | TGI (COLO 205 colon) | TGI (PC-3 prostate) | TGI (HOP-62 NSCLC) | TGI (IGROV1 ovarian) | TGI (K-562 leukemia) | TGI (MDA-MB-231 breast) | TGI (DU-145 prostate) | TGI (UACC-62 melanoma) | TGI (HCC-2998 colon) | TGI (HCT-15 colon) | TGI (HS 578T breast) | TGI (SF-295 CNS) | TGI (SNB-19 CNS) | TGI (OVCAR-5 ovarian) | TGI (LOX IMVI melanoma) | TGI (M14 melanoma) | TGI (NCI/ADR-RES ovarian) | TGI (OVCAR-4 ovarian) | TGI (EKVX NSCLC) | TGI (CAKI-1 renal) | TGI (U251 CNS) | TGI (786-0 renal) | TGI (UACC-257 melanoma) | TGI (RXF 393 renal) | TGI (RPMI-8226 leukemia) | TGI (OVCAR-3 ovarian) | TGI (SK-MEL-5 melanoma) | TGI (SF-268 CNS) | TGI (SK-MEL-28 melanoma) | TGI (KM12 colon) | TGI (NCI-H23 lung) | TGI (MCF7 breast) | TGI (A549 NSCLC) | TGI (NCI-H522 lung) | TGI (T-47D breast) | TGI (HT29 colon) | TGI (MOLT-4 leukemia) | TGI (BT-549 breast) | TGI (SK-MEL-2 melanoma) | TGI (SK-OV-3 ovarian) | TGI (HCT-116 colon) | TGI (TK-10 renal) | TGI (SN12C renal) | TGI (ACHN renal) | TGI (SF-539 CNS) | TGI (SW-620 colon) | TGI (MDA-MB-435) | TGI (UO-31 renal)

COc1ccc(C2=NN(C=O)C(c3ccc(OS(=O)(=O)c4ccc(C)cc4)c(OC)c3)C2)cc1 (configuration not stated)
25.1 µM: TGI (SNB-75 CNS)
> 100 µM: TGI (OVCAR-8 ovarian) | TGI (NCI-H460 lung) | TGI (CCRF-CEM leukemia) | TGI (A498 renal) | TGI (COLO 205 colon) | TGI (PC-3 prostate) | TGI (IGROV1 ovarian) | TGI (K-562 leukemia) | TGI (MDA-MB-231 breast) | TGI (DU-145 prostate) | TGI (UACC-62 melanoma) | TGI (HL-60(TB) leukemia) | TGI (HCC-2998 colon) | TGI (HCT-15 colon) | TGI (SNB-19 CNS) | TGI (OVCAR-5 ovarian) | TGI (LOX IMVI melanoma) | TGI (M14 melanoma) | TGI (NCI/ADR-RES ovarian) | TGI (CAKI-1 renal) | TGI (786-0 renal) | TGI (UACC-257 melanoma) | TGI (RPMI-8226 leukemia) | TGI (OVCAR-3 ovarian) | TGI (SR leukemia) | TGI (SF-268 CNS) | TGI (SK-MEL-28 melanoma) | TGI (KM12 colon) | TGI (NCI-H23 lung) | TGI (MCF7 breast) | TGI (A549 NSCLC) | TGI (NCI-H226 lung) | TGI (T-47D breast) | TGI (MOLT-4 leukemia) | TGI (SK-OV-3 ovarian) | TGI (HCT-116 colon) | TGI (TK-10 renal) | TGI (SN12C renal) | TGI (ACHN renal) | TGI (SF-539 CNS) | TGI (SW-620 colon) | TGI (UO-31 renal)
25.2 µM: TGI (SF-295 CNS)
46.8 µM: TGI (RXF 393 renal)
38.6 µM: TGI (SK-MEL-2 melanoma)
90.4 µM: TGI (NCI-H522 lung)
inactive: GI50 (OVCAR-8 ovarian) 10.2 µM | GI50 (NCI-H460 lung) 8.86 µM | GI50 (CCRF-CEM leukemia) 4.05 µM | GI50 (SNB-75 CNS) 3.33 µM | GI50 (HOP-92 NSCLC) 1.88 µM | GI50 (A498 renal) 1.81 µM | GI50 (COLO 205 colon) 8.44 µM | GI50 (PC-3 prostate) 3.34 µM | GI50 (HOP-62 NSCLC) 9.47 µM | GI50 (IGROV1 ovarian) 18.8 µM | GI50 (K-562 leukemia) 2.45 µM | GI50 (MDA-MB-231 breast) 5.52 µM | GI50 (DU-145 prostate) 74.9 µM | GI50 (UACC-62 melanoma) 3.73 µM | GI50 (HL-60(TB) leukemia) 2.56 µM | GI50 (HCC-2998 colon) > 100 µM | GI50 (HCT-15 colon) 4.19 µM | GI50 (HS 578T breast) 5.66 µM | GI50 (SF-295 CNS) 3.58 µM | GI50 (SNB-19 CNS) 11.7 µM | GI50 (OVCAR-5 ovarian) > 100 µM | GI50 (LOX IMVI melanoma) 9.41 µM | GI50 (M14 melanoma) 3.92 µM | GI50 (NCI/ADR-RES ovarian) 4.5 µM | GI50 (CAKI-1 renal) 5.35 µM | GI50 (786-0 renal) 21.6 µM | GI50 (UACC-257 melanoma) 4.22 µM | GI50 (RXF 393 renal) 3.81 µM | GI50 (RPMI-8226 leukemia) 4.12 µM | GI50 (OVCAR-3 ovarian) 5.6 µM | GI50 (SR leukemia) 3.02 µM | GI50 (SF-268 CNS) 17.2 µM | GI50 (SK-MEL-28 melanoma) 10.6 µM | GI50 (KM12 colon) 9.23 µM | GI50 (NCI-H23 lung) 4.58 µM | GI50 (MCF7 breast) 3.7 µM | GI50 (A549 NSCLC) 9.42 µM | GI50 (NCI-H522 lung) 4.22 µM | GI50 (NCI-H226 lung) 8.81 µM | GI50 (T-47D breast) 2.27 µM | GI50 (MOLT-4 leukemia) 5.23 µM | GI50 (MALME-3M melanoma) 7.09 µM | GI50 (BT-549 breast) 3.35 µM | GI50 (SK-MEL-2 melanoma) 3.52 µM | GI50 (SK-OV-3 ovarian) 8.88 µM | GI50 (HCT-116 colon) 4.56 µM | GI50 (TK-10 renal) > 100 µM | GI50 (SN12C renal) 65.9 µM | GI50 (ACHN renal) 10.1 µM | GI50 (SF-539 CNS) 8.62 µM | GI50 (SW-620 colon) 5.31 µM | GI50 (MDA-MB-435) 2.4 µM | GI50 (UO-31 renal) 3.39 µM
58.1 µM: TGI (BT-549 breast)
9.97 µM: TGI (MDA-MB-435)
31.1 µM: TGI (HOP-92 NSCLC)
74 µM: TGI (HOP-62 NSCLC)
49.3 µM: TGI (MALME-3M melanoma)
88.3 µM: TGI (HS 578T breast)
